The results in this text go back to US20240368147A1, “CYCLIN K DEGRADER” (ADLAI NORTYE BIOPHARMA CO., LTD., priority 2021, published 2024).

For this assay, the system named is HGC27 (Human Gastric Cancer Cell). The experiment in a line: HGC27 cell growth inhibition (CellTiter-Glo). To be noted: Homo sapiens, HGC-27, 24 h, read-out: HGC27 CTG IC50. Format: cell-based. The method, then:
Biological Activity Detection of HGC27 (Human Gastric Cancer Cell) Cell Growth Inhibition
This detection method is used to evaluate the cellular level biological activity of the compounds of the present disclosure.
Harvest HGC27 cells (purchased from Chinese Academy of Sciences), resuspend in complete culture medium and adjust the cell density to 0.2×10^6 cells per ml. Add 100 μL of cell suspension to each well into a 96-well plate and incubate overnight in a 37° C., 5% CO2 incubator. Prepare the compound to be tested and add it to the cell plate so that the maximum concentration of the compound is 10 μM. Set 8 concentration points according to 3-fold dilution. At the same time, set up a 100% inhibition control well, that is, a well with no cells added and only an equal volume of complete culture medium; and a 0% inhibition control well, that is, a cell well with 0.1% DMSO added. The above cell plate was cultured at 37° C. and 5% CO2 for 24 hours. Take out the cell culture plate, add 25 μl CellTiter-Glo® Luminescent Cell Viability reagent (promega cat #G7573) to each well, incubate in the dark for 10 minutes, transfer 100 μL to a white plate, and use Molecular Devices SpectraMax i3 to detect chemiluminescence. Data processing uses the following formula to calculate the inhibition rate: compound inhibition rate=(0% inhibition of control well signal−compound treatment well signal)/(0% inhibition of control well signal−100% inhibition of control well signal)*100%. The calculated data were fitted using graphpad prism software with four parameters and the corresponding IC50 was calculated.
According to the above detection method, the biological activity of the compound of the present disclosure was evaluated at the cellular level. Wherein, CR8 is a literature compound, which was purchased from Shanghai Bide Pharmaceutical.
For orientation: In ATP-based viability assays light output follows the ATP content of the culture.

Where [1] appears, read: HGC27 cells, 24 hours, CellTiter-Glo.

The structures appear in SMILES notation. Where two headings read alike, the source gives them in different places.

A word on the IC50: it is the concentration at which inhibition is half-maximal.

In the case of `C[C@@H](O)[C@@H](C)Oc1nc(NCc2ccc(-c3cc(CO)cc(CO)n3)cc2)ncc1C(F)(F)F` [Compound 168], under setting [1], the IC50 was found to be 60 nM.
Same read-out and setting: then `C[C@H](CO)Oc1nc(NCc2ccc(-c3ccccn3)cc2)ncc1C(F)(F)F` [Compound 165], with 89 nM.
Same read-out and setting: then `NC(=O)[C@H](Nc1nc(NCc2ccc(-c3ccccn3)cc2)ncc1C(F)(F)F)C1CCC1` [Compound 211], with 110 nM; and `NC(=O)[C@@H](CO)Nc1nc(NCc2ccc(-c3ccccn3)cc2)ncc1C(F)(F)F` [Compound 127], with 446 nM; and `C[C@@H](O)[C@@H](CO)Nc1nc(NCc2ccc(-c3cc(CO)cc(CO)n3)cn2)ncc1C(F)(F)F` [Compound 177], with 193 nM.
For `C[C@@H](O)[C@@H](CO)Nc1nc(NCc2ccc(-c3cccc(CO)n3)cc2)ncc1C(F)(F)F` [Compound 171], the IC50 under setting [1] came to 25 nM.
Same read-out and setting: then `CC(C)(C)[C@H](CO)Nc1nc(NCc2ccc(-c3ccccn3)cc2)ncc1C(F)(F)F` [Compound 85], with 405 nM; and `CC[C@H](CO)Nc1nc(NCc2ccc(-c3ccccn3)cc2)c2ncn(C(C)C)c2n1` [CR8, reference compound], with 429 nM.
Still for that read-out and setting: the value for `COC[C@H](CO)Nc1nc(NCc2ccc(-c3ccccn3)cc2)ncc1C(F)(F)F` [Compound 158] was 49 nM.
Same read-out and setting: the value for `C[C@@H](O)[C@@H](CO)Nc1nc(NCc2ccc(-c3ccccn3)cc2)ncc1C(F)(F)F` [Compound 126] was 170 nM; that for `C[C@@H](Nc1ncc(C(F)(F)F)c(OC2COC2)n1)c1ccc(-c2cc(CO)cc(CO)n2)cc1` [Compound 181] was 63 nM.
Consider `C=Cc1ccnc(-c2ccc(CNc3ncc(C(F)(F)F)c(OC4COC4)n3)cc2)c1` [Compound 129], for which the concentration for half-maximal inhibition (IC50) under setting [1] was found to be 77 nM.
On the same count and under the same terms, the value for `O[C@H]1CCCC[C@H]1Nc1nc(NCc2ccc(-c3ccccn3)cc2)ncc1C(F)(F)F` [Compound 156] was 169 nM.
On the same count and under the same terms, the value for `CC[C@@H](Nc1nc(NCc2ccc(-c3cc(CO)cc(C)n3)cc2)ncc1C(F)(F)F)C(N)=O` [Compound 161] was 193 nM.
`C[C@@H](O)[C@H](Nc1nc(NCc2ccc(-c3ccccn3)cc2)ncc1C(F)(F)F)C(N)=O` [Compound 207]: the IC50 was found to be 103 nM.
Take `Cc1cc(CO)nc(-c2ccc(CNc3ncc(C(F)(F)F)c(OC4COC4)n3)cc2)c1` [Compound 69]: the IC50 under setting [1] amounted to 185 nM.
On the same count and under the same terms, then `NC(=O)[C@H](Nc1nc(NCc2ccc(-c3ccccn3)cc2)ncc1C(F)(F)F)C1CC1` [Compound 206], with 65 nM.
Still for that read-out and setting: the value for `CC[C@@H](Nc1nc(NCc2ccc(-c3cc(CO)cc(CO)n3)cc2)ncc1C(F)(F)F)C(N)=O` [Compound 169] was 53 nM; that for `CC[C@H](CN)Nc1nc(NCc2ccc(-c3ccccn3)cc2)ncc1C(F)(F)F` [Compound 214] was 292 nM.
On the same count and under the same terms, the value for `CNC(=O)[C@@H](C)Nc1nc(NCc2ccc(-c3ccccn3)cc2)ncc1C(F)(F)F` [Compound 193] was 39 nM; that for `OCc1ccnc(-c2ccc(CNc3ncc(C(F)(F)F)c(OC4COC4)n3)cc2)c1` [Compound 43] was 266 nM; that for `CC[C@H](O)[C@@H](C)Nc1nc(NCc2ccc(-c3ccccn3)cc2)ncc1C(F)(F)F` [Compound 199] was 205 nM.
As for `O[C@@H]1CCC[C@H]1Nc1nc(NCc2ccc(-c3ccccn3)cc2)ncc1C(F)(F)F` [Compound 70], under setting [1], the IC50 stood at 160 nM.
Consider `C[C@H](O)[C@@H](Nc1nc(NCc2ccc(-c3ccccn3)cc2)ncc1C(F)(F)F)C(N)=O` [Compound 212], for which the IC50 was determined as 187 nM.
Regarding `OCc1cc(CO)nc(-c2ccc(CNc3ncc(C(F)(F)F)c(OC4COC4)n3)cc2)c1` [Compound 125], the IC50 under setting [1] stood at 191 nM.
Turning to `CCc1ccnc(-c2ccc(CNc3ncc(C(F)(F)F)c(OC4COC4)n3)cc2)c1` [Compound 135], the half-inhibitory concentration (IC50) under setting [1] came to 427 nM.
Same read-out and setting: then `C[C@@H](Oc1nc(NCc2ccc(-c3ccccn3)cc2)ncc1C(F)(F)F)C(C)(C)O` [Compound 167], with 49 nM.
